These results are taken from publication PMC2896318 (Biochemistry, 2009).

Series [1] is described as follows: Spontaneous hydrolysis of diaroyl phosphates in buffer. The class given is physicochemical. Particulars: values are ko × 10^6; 25 mM MOPS buffer, pH 7.5, 25 °C.
The target of series [2] is Escherichia coli W3310 TEM-2 β-lactamase (Escherichia coli, UniProt P62593, Q37K). The experiment in a line: Inhibition and turnover kinetics with TEM-2 β-lactamase. The class given is biochemical. Particulars: for TEM k2 × 10^3 (deacylation rate constant): values are k2 × 10^3, pH 7.5, 25 °C.
The target of series [3] is T1, Enterobacter cloacae P99 β-lactamase (Enterobacter cloacae, UniProt P05364). Particulars: for Ki: read-out: P99 K1.
T1 sequence (P05364 21-381): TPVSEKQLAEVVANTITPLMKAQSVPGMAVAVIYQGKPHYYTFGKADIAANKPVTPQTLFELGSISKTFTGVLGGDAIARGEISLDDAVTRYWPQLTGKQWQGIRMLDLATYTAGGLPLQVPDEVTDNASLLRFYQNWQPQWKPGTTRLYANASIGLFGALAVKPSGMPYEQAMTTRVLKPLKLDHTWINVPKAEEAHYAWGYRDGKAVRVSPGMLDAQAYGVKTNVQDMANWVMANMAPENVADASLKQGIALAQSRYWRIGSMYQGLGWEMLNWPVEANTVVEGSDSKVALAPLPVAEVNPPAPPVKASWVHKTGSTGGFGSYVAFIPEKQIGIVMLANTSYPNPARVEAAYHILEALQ
In series [4] the target is T1, Enterobacter cloacae P99 β-lactamase. Particulars: previously determined ratio; cited from earlier work.
In series [5] the target is OXA-1 β-lactamase (Escherichia coli, UniProt P13661). The experiment in a line: Inhibition of class D β-lactamase OXA-1. The class given is biochemical.
OXA-1 β-lactamase, sequence (P13661 26-276): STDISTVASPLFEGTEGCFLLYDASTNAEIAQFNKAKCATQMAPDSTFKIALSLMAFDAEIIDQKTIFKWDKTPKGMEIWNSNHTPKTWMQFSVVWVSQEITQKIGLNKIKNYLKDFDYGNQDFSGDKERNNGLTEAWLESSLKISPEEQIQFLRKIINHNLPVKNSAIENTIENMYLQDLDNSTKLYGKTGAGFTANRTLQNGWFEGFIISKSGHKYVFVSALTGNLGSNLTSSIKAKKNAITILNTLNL
Series [6] has as its target T1, Enterobacter cloacae P99 β-lactamase. The experiment in a line: biochemical.
Setting [7] is: high inhibitor concentrations (>100 μM).
The mark [8] stands for this setting: footnote b: calculated from ki = k2/Ki.

Where two headings read alike, the source gives them in different places.

Consider `O=C(OP(=O)(O)OC(=O)c1ccccc1)c1ccccc1` [compound 5, dibenzoyl phosphate], for which the “ko × 10^6 (spontaneous hydrolysis rate constant)” value in series [1] is listed as 0.78 s^−1. In series [2] (setting [7]), the “k3 (rearrangement of EI to more inert EI′, Scheme 5)” value was “(3.3 ± 0.7) × 10^−4 s^−1” and the “k4 (breakdown of EI′ to free enzyme, Scheme 5)” value was 0.00015 s⁻¹. The “TEM ki (acylation rate constant)” value in series [2] (pH 7.5, 20 mM MOPS, 25 °C, from progress curve fits) is 0.5 ± 0.1 s⁻¹ mM⁻¹. Besides, in series [2] (read-out: TEM Ki, footnote a: calculated from Ki = k2/ki), the Ki was 76000 nM. In addition, the “TEM k2 × 10^3 (deacylation rate constant)” value in series [2] amounted to 38 ± 3 s^−1. Moreover, in series [3] (pH 7.5), the “P99 k2 × 10^3 (deacylation rate constant)” value amounted to 9.3 ± 0.2 s^−1 and the “P99 ki (acylation rate constant)” value worked out at 7 ± 1 s⁻¹ mM⁻¹. In addition, the Ki in series [3] was 1330 nM. Further, the “k3/k2 (methanol vs water partitioning of acyl-enzyme)” value in series [4] is on record as 23.6.

`O=C(OP(=O)([O-])OC(=O)c1cc2ccccc2o1)c1cc2ccccc2o1.[Na+]` [compound 12, Sodium bis[2-benzo(b)furancarbonyl] phosphate]: in series [1], the “ko × 10^6 (spontaneous hydrolysis rate constant)” value amounted to 285 s^−1. For the same molecule, in series [2] (setting [8]), the “TEM ki (acylation rate constant)” value is given as 1.8 ^b s^−1mM^−1. In addition, the “TEM k2 × 10^3 (deacylation rate constant)” value in series [2] came to 74 ± 1 s^−1. Also, the Ki came to 14200 nM in series [5] and 1300 ± 300 nM in series [6]. For the same molecule, in series [3] (values are k2 × 10^3, pH 7.5, 25 °C), the “P99 k2 × 10^3 (deacylation rate constant)” value was 354 ± 26 s^−1.

With `O=C(OP(=O)([O-])OC(=O)c1cc2ccccc2s1)c1cc2ccccc2s1.[Na+]` [compound 11, Sodium bis[benzo(b)thiophenecarbonyl] phosphate], in series [1], the “ko × 10^6 (spontaneous hydrolysis rate constant)” value is reported as 54.1 s^−1. For the same molecule, the “TEM ki (acylation rate constant)” value in series [2] (setting [8]) is reported as 53 ^b s^−1mM^−1. In addition, the “TEM k2 × 10^3 (deacylation rate constant)” value in series [2] is given as 79 ± 2 s^−1. Also, in series [5] (read-out: Ki for OXA-1, class D β-lactamase), the Ki turned out to be 60 nM. Also, in series [3], the “P99 ki (acylation rate constant)” value is reported as 69600 ^b s^−1mM^−1 and the Ki stood at 3 nM. Moreover, in series [3] (pH 7.5), the “P99 k2 × 10^3 (deacylation rate constant)” value is 211 ± 6 s^−1.
